Assays:
CFA-stimulated rats [1] = assay: CFA inflammatory pain model, mechanical allodynia (von Frey test); assay type: in vivo; design: key to Mechanical Allodynia, change in sensitivity compared to CFA alone / Mechanical Allodynia, significant reduction in pain behavior vs CFA alone: NS = no statistically significant change in sensitivity compared to CFA alone; + = statistically significant change in sensitivity compared to CFA alone, p < 0.05
Experimental: (§1) Response to peripheral inflammatory stimulus can be modeled by administering complete Freund's adjuvant (CFA), a suspension of desiccated mycobacterium in paraffin oil and mannide monooleate, by subcutaneous injection into the rat's footpad. The introduction of CFA to peripheral tissues leads to a rapid, sustained, inflammatory reaction in the treated tissue within 24 hours. Subcutaneous administration of CFA in the plantar region of the paw induces inflammatory pain behaviors that persist for at least 8 days. CFA treatment also leads to the accumulation of inflammatory cytokines in paw tissue at the site of injury, which, if unresolved, can lead to formation of fibrotic tissue. The extent of inflammatory response to CFA can be assessed by quantification of inflammatory cytokines in paw skin lysate, and inflammatory pain behaviors by mechanical allodynia (von Frey test) and thermal hyperalgesia (Hargreaves test).
(§2) In one study, Compound 2a was tested for its ability to reduce inflammatory pain behaviors in the CFA inflammation model. On study day 0, […] of CFA was administered subcutaneously in the plantar of the right hind paw. Animals were treated daily with Compound 2a in solution via oral gavage (PO) at doses of 1, 0.1, and 0.025 mg/kg. Treatment began before CFA injection on study day −1 and continued through study day 8.
Mechanical allodynia was measured using the von Frey test. In this test, rats were placed on a wire mesh and a series of filaments designed to deliver probing force ranging from 4 to 26 grams were applied to the mid-plantar surface of the right hind paw. Animals indicated pain response by lifting the probed paw. The minimal force required to elicit the withdrawal response was recorded as the paw withdrawal threshold (PWT). Von Frey testing was performed 1 hour after Compound 2a dosing on study day 1, 3, and 7, and was also tested pre-dosing on day 7. Statistical analysis was performed using a 1-way ANOVA with Tukey post-test. A p-value below 0.05 was considered statistically significant. Control animals stimulated with CFA but treated with only vehicle had high sensitivity to mechanical stimulation compared to normal control animals.
(§3) In another study, Compounds 1a, 5a, and 6a were similarly tested against CFA-induced inflammatory stimulation in the right hind foot for their ability to reduce pain behaviors. This study also included quantification of inflammatory cytokine expression in paw skin lysate. Inflammatory pain stimulation with CFA injection and assessment of mechanical and thermal pain behaviors were performed as described above, with the exception that only post-dose pain behavior testing is reported.
(§4) Intraplantar CFA injection occurred at day 0. Treatment with Compounds 1a, 5a, and 6a occurred at days −2, 1, 3, and 7. At day 8, the rats were terminated and cytokine levels were measured in paw skin and plasma. Tissue from paw bone, joint, and muscle were obtained for H&E staining and analysis. Cytokine levels in test compound-treated animals were compared to CFA-stimulated animals. Analytes included interleukin 4 (IL-4), tumor necrosis factor alpha (TNF-α) and interferon gamma (IFN-γ). Statistical analysis consisted of 1-way ANOVA followed by Dunnett's multiple comparisons post-test. Mechanical allodynia and thermal hyperalgesia were tested 1 hour post-dosing on days 1, 3, and 7. PWT refers to […] paw withdrawal threshold where a higher value corresponds to a higher pain threshold. PWL refers to […] paw withdrawal latency where a higher value corresponds to a higher pain threshold.

CFA-stimulated rats [2] = assay: CFA inflammatory pain model, cytokine expression in paw skin; assay type: in vivo; design: key to IFN-γ expression in paw skin, change compared to CFA alone / IL-4 expression in paw skin, change compared to CFA alone / TNF-α expression in paw skin, change compared to CFA alone: NS = no statistically significant change in expression compared to CFA alone; + = statistically significant change in expression compared to CFA alone, p < 0.05; conditions: for IFN-γ expression in paw skin, change compared to CFA alone / IL-4 expression in paw skin, change compared to CFA alone / TNF-α expression in paw skin, change compared to CFA alone: day 8
Experimental: as §1, §3, §4

CFA-stimulated rats [3] = assay: CFA inflammatory pain model, thermal hyperalgesia (Hargreaves method); assay type: in vivo; conditions: Day 5, 1 hour pre-dosing; data not shown
CFA-stimulated rats [4] = assay: as above; assay type: in vivo; design: key to Thermal Hyperalgesia, change in sensitivity compared to CFA alone / Thermal Hyperalgesia, significant reduction in pain behavior vs CFA alone: NS = no statistically significant change in sensitivity compared to CFA alone; + = statistically significant change in sensitivity compared to CFA alone, p < 0.05
Experimental: as §1, §2
Thermal hyperalgesia was measured using the Hargreaves method. A temperature ramp was applied to the right hind paw and the paw withdrawal latency (PWL) was recorded as a measure of sensitivity to thermal stimulation. […] Statistical analysis was performed using a 1-way ANOVA with Tukey post-test. A p-value below 0.05 was considered statistically significant.
as §3, §4

[5] = tested on: THP-1-differentiated macrophages; assay: Pro-inflammatory cytokine expression in LPS-challenged THP-1-differentiated macrophages; assay type: cell-based, human; design: key to IL-6, significant reduction in culture supernatant vs LPS treatment / TNF-α, significant reduction in culture supernatant vs LPS treatment / IL-1β, significant reduction in culture supernatant vs LPS treatment: “NS” indicates a non-significant reduction in the indicated cytokine; “+” indicates a p value <0.05 in Tukey post test; “++” indicates a p value <0.01 in Tukey post test; conditions: for IL-1β, significant reduction in culture supernatant vs LPS treatment / IL-6, significant reduction in culture supernatant vs LPS treatment / TNF-α, significant reduction in culture supernatant vs LPS treatment: 20 min pre-treatment, 24 hrs LPS
Experimental: Differentiation with PMA causes THP-1 monocyte cells to acquire functional and morphological resemblance to macrophages. LPS interacts with THP-1 differentiated macrophage through the toll-like receptor 4, triggering the inflammatory response and stimulating pro-inflammatory cytokine release and eventually leading to cellular death. Compounds were tested to determine their anti-inflammatory effects on LPS-challenged macrophage cultures. THP-1-differentiated macrophages were treated with test compounds for 20 minutes, followed by 24 hrs of LPS challenge. Culture supernatants were then collected to analyzed for the presence of pro-inflammatory cytokines: […], interleukin 6 (IL-6) and tumor necrosis factor α (TNF-α).
Cytokine quantification in cell culture supernatants was accomplished by HTRF kits to assess levels of IL-1β (Human IL-1β kit, #62HIL1BPEG, Cisbio) and IL-6 (Human IL-6 kit, 62HIL06PET, Cisbio), and by ELISA to determine the levels of TNF-α (Human TNF-α ELISA kit, KHC3011, ThermoFisher).
Data analysis was performed via 1-way ANOVA with Tukey post-test compared to LPS treatment cultures using Prism statistical software (GraphPad). Tabular data indicates significance of reduction in culture supernatants for the indicated analyte at the indicated doses.

[6] = 2.5 mg/kg PO, Day 1, 1 h post-dose
[7] = 2.5 mg/kg PO, Day 3, 1 h post-dose
[8] = 2.5 mg/kg PO, Day 7, 1 h post-dose
[9] = 10 mg/kg PO, Day 1, 1 h post-dose
[10] = 10 mg/kg PO, Day 3, 1 h post-dose
[11] = 10 mg/kg PO, Day 7, 1 h post-dose

CCC(C)CN1CC2N(Cc3ccc(OC(F)F)cc3)CCC(=O)N2[C@@H](C)C1=O (some centres unmarked) [Compound 6a]
Mechanical Allodynia, significant reduction in pain behavior vs CFA alone (CFA-stimulated rats [1]; [6]): NS | Mechanical Allodynia, significant reduction in pain behavior vs CFA alone (CFA-stimulated rats [1]; [7]): NS | Mechanical Allodynia, significant reduction in pain behavior vs CFA alone (CFA-stimulated rats [1]; [8]): NS | Mechanical Allodynia, significant reduction in pain behavior vs CFA alone (CFA-stimulated rats [1]; [9]): NS | Mechanical Allodynia, significant reduction in pain behavior vs CFA alone (CFA-stimulated rats [1]; [10]): NS | Mechanical Allodynia, significant reduction in pain behavior vs CFA alone (CFA-stimulated rats [1]; [11]): NS | IFN-γ expression in paw skin, change compared to CFA alone (CFA-stimulated rats [2]; 2.5 mg/kg PO): NS | IL-4 expression in paw skin, change compared to CFA alone (CFA-stimulated rats [2]; 2.5 mg/kg PO): + (+ = statistically significant change in expression compared to CFA alone, p < 0.05) | TNF-α expression in paw skin, change compared to CFA alone (CFA-stimulated rats [2]; 2.5 mg/kg PO): + (+ = statistically significant change in expression compared to CFA alone, p < 0.05) | IFN-γ expression in paw skin, change compared to CFA alone (CFA-stimulated rats [2]; 10 mg/kg PO): NS | IL-4 expression in paw skin, change compared to CFA alone (CFA-stimulated rats [2]; 10 mg/kg PO): NS | TNF-α expression in paw skin, change compared to CFA alone (CFA-stimulated rats [2]; 10 mg/kg PO): NS | IFN-γ expression in paw skin (CFA-stimulated rats [2]; both tested doses): no effect | PWL (paw withdrawal latency) (CFA-stimulated rats [3]): statistically significant increase | Thermal Hyperalgesia, significant reduction in pain behavior vs CFA alone (CFA-stimulated rats [4]; [6]): NS | Thermal Hyperalgesia, significant reduction in pain behavior vs CFA alone (CFA-stimulated rats [4]; [7]): NS | Thermal Hyperalgesia, significant reduction in pain behavior vs CFA alone (CFA-stimulated rats [4]; [8]): + (+ = statistically significant change in sensitivity compared to CFA alone, p < 0.05) | Thermal Hyperalgesia, significant reduction in pain behavior vs CFA alone (CFA-stimulated rats [4]; [9]): NS | Thermal Hyperalgesia, significant reduction in pain behavior vs CFA alone (CFA-stimulated rats [4]; [10]): NS | Thermal Hyperalgesia, significant reduction in pain behavior vs CFA alone (CFA-stimulated rats [4]; [11]): + (+ = statistically significant change in sensitivity compared to CFA alone, p < 0.05) | study days on which thermal sensitivity was reduced (CFA-stimulated rats [4]; PO, post-dose testing, any tested dose): study day 7 | PWL (paw withdrawal latency) vs CFA+vehicle (CFA-stimulated rats [4]; day 7 at each dose, data not shown): statistically significant increase | IL-1β, significant reduction in culture supernatant vs LPS treatment ([5]; 0.1 nM): NS | IL-6, significant reduction in culture supernatant vs LPS treatment ([5]; 0.1 nM): NS | TNF-α, significant reduction in culture supernatant vs LPS treatment ([5]; 0.1 nM): NS | IL-1β, significant reduction in culture supernatant vs LPS treatment ([5]; 10 nM): NS | IL-6, significant reduction in culture supernatant vs LPS treatment ([5]; 10 nM): NS | TNF-α, significant reduction in culture supernatant vs LPS treatment ([5]; 10 nM): NS | IL-1β, significant reduction in culture supernatant vs LPS treatment ([5]; 1000 nM): + (“+” indicates a p value <0.05 in Tukey post test) | IL-6, significant reduction in culture supernatant vs LPS treatment ([5]; 1000 nM): NS | TNF-α, significant reduction in culture supernatant vs LPS treatment ([5]; 1000 nM): + (“+” indicates a p value <0.05 in Tukey post test) | expression of IL-1β and TNF-α ([5]; at at least one tested dose): significantly reduced
